For assay [1], the target named is MetRS (T. brucei) (Trypanosoma brucei brucei, UniProt Q38C91). Put plainly: MetRS (T. brucei) ATP depletion assay using Kinase-Glo. The class given is biochemical.
Assay [2] deals with T. brucei. Put plainly: Growth inhibition assay of T. brucei cell cultures (Alamar Blue, 48 h). The class given is cell-based. (In general: Alamar Blue is a resazurin reagent that responds to reducing activity.)
In assay [3] the test system is T. cruzi. Nature of the assay: T. cruzi growth inhibition EC50. The class given is cell-based. The settings on record: Trypanosoma cruzi; read-out: C) T. cruzi EC50.
Assay [4] concerns the target MetRS (S. aureus) (Staphylococcus aureus, UniProt Q5HII6). Nature of the assay: biochemical. As to conditions: ATP depletion, Kinase-Glo; read-out: H) MetRS (S. aureus) ATP depletion assay using Kinase-Glo with modified cpd dilution method, IC50. A general note: Kinase-Glo reads ATP consumption through a luciferase reaction.
Where [5] appears, read: Trypanosoma brucei; read-out: B) T. brucei EC50.

Molecules are shown by their SMILES. Where “and” joins values, the source holds several entries; their conditions need not be identical. Identical values can stand only once. Like-named read-outs stand apart in the source and are kept apart here.

The text below walks through data of US10913736B2 (UNIVERSITY OF WASHINGTON, priority 2014, dated 2021).

Broadly, the IC50 is the concentration that inhibits the measured activity by half. Usually EC50 stands for the midpoint of the concentration-response curve.

Chain of MetRS (T. brucei) (Q38C91 entry or part of it): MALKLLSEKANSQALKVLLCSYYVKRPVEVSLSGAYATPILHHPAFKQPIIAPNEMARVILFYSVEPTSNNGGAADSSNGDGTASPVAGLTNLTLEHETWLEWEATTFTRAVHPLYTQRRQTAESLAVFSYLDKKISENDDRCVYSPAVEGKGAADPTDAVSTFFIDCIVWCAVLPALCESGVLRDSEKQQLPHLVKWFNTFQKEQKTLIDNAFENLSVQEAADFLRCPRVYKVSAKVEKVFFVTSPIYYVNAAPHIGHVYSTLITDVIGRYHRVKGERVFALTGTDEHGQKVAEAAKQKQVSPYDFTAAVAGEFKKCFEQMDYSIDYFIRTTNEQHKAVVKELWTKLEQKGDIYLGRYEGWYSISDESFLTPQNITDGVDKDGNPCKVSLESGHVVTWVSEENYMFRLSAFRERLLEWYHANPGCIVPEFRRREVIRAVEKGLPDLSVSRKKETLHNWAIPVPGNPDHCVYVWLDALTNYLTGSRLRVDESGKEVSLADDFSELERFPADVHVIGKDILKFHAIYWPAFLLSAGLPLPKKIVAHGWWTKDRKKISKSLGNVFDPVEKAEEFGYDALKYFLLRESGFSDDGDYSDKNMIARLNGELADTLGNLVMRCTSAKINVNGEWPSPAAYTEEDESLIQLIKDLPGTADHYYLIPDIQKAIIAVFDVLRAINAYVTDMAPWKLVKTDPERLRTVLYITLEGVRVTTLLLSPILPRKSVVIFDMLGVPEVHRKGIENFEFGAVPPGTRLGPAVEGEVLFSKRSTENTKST
Chain of MetRS (S. aureus) (Q5HII6 whole entry): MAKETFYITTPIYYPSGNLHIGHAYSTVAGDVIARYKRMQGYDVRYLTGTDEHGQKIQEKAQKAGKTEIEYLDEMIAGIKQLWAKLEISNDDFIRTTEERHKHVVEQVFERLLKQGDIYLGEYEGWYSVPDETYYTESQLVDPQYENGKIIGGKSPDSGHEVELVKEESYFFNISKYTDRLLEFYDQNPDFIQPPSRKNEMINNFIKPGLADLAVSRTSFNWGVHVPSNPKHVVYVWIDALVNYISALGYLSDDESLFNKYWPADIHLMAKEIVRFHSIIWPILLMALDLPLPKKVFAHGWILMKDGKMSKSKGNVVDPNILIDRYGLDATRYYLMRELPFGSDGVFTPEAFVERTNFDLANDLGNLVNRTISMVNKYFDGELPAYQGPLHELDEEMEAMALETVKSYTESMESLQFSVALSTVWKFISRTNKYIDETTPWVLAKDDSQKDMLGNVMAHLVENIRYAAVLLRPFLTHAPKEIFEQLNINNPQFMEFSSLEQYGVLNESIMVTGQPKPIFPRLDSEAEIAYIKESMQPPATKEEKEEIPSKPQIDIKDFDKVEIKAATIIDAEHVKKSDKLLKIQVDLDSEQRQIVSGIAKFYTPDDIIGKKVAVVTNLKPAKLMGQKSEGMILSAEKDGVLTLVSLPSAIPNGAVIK

On to `Clc1cc(Cl)cc(CNCCCc2nc3ccc(Cl)nc3[nH]2)c1` [Compound 1881, (3-{5-chloro-3H-imidazo[4,5-b]pyridin-2-yl}propyl)[(3,5-dichlorophenyl)methyl]amine], for which the IC50 in assay [1] was found to be 35 nM. The EC50 stood at 307 nM in assay [2] (setting [5]) and 5870 nM in assay [3].
For `CN(CCN(Cc1cc(Cl)cc(Cl)c1)C(N)=O)c1nc2ccc(Cl)nc2[nH]1` [Compound 1972, 1-(3,5-dichlorobenzyl)-1-(2-(5-chloro-N-methyl-1H-imidazo[4,5-b]pyridin-2-ylamino)ethyl)urea], the IC50 is 27 nM in assay [1] and 140 nM in assay [4].
`OC(CNCc1cc(Cl)cc(Cl)c1)CNc1nc2cccnc2[nH]1` (stereo not shown) [Compound 1634, 1-((1H-imidazo[4,5-b]pyridin-2-yl)amino)-3-((3,5-dichlorobenzyl)amino)propan-2-ol] came in with an IC50 in assay [1] of 133 nM. The 50% effective concentration (EC50) in assay [2] (setting [5]) was determined as 121 nM; in assay [3], 9760 nM.
`CN(CCN(Cc1cc(Cl)cc(Cl)c1)C(=O)CO)c1nc2ccc(Cl)nc2[nH]1` [Compound 1971, N-(3,5-dichlorobenzyl)-N-(2-(5-chloro-N-methyl-1H-imidazo[4,5-b]pyridin-2-ylamino)ethyl)-2-hydroxyacetamide]: the values for the 50% inhibitory concentration (IC50) in assay [1] and in assay [4] were 13 nM and 85 nM, respectively. The half-maximal effective concentration (EC50) in assay [2] (setting [5]) was found to be 62.3 nM; in assay [2] (read-out: B) T. brucei EC50), 40.4 nM.
Regarding `O=C(CNc1nc2ccc(Cl)nc2[nH]1)NCc1cc(Cl)cc(Cl)c1` [Compound 1970, 2-((5-chloro-3H-imidazo[4,5-b]pyridin-2-yl)amino)-N-(3,5-dichlorobenzyl)acetamide], the IC50 in assay [1] came to 69 nM; in assay [4] it was 1080 nM. Further, in assay [2] (setting [5]), the EC50 stood at 2980 nM.
The matching figures for `CCOc1c(Cl)cc(Cl)cc1CNCCN(C)c1nc2nc(Cl)ccc2[nH]1` [Compound 1925, 5-chloro-N-(2-{[(3,5-dichloro-2-ethoxyphenyl)methyl]amino}ethyl)-N-methyl-3H-imidazo[4,5-b]pyridin-2-amine]: 15 nM, 266 nM and 314 nM.
Take `Cc1ccc2[nH]c(NCCCNCc3cc(Cl)cc(Cl)c3)nc2n1` [Compound 1599, N1-(3,5-dichlorobenzyl)-N3-(5-methyl-1H-imidazo[4,5-b]pyridin-2-yl)propane-1,3-diamine]: the IC50 in assay [1] was 45 nM and 59 nM. The half-maximal effective concentration (EC50) came out at 662 nM in assay [2] (setting [5]) and 2910 nM in assay [3].
`Clc1cc(Cl)cc(CNc2cccc(-c3nc4ccc(Cl)nc4[nH]3)c2)c1` [Compound 1966, 3-{5-chloro-3H-imidazo[4,5-b]pyridin-2-yl}-N-[(3,5-dichlorophenyl)methyl]amine]: the results for the 50% inhibitory concentration (IC50) in assay [1] and in assay [4] were 72 nM and 5730 nM, respectively. Further, the EC50 in assay [2] (setting [5]) stood at 1030 nM.
Turning to `Clc1cc(Cl)cc(CNCCc2nc3ncc(Cl)cc3[nH]2)c1` [Compound 1844, (2-{6-chloro-3H-imidazo[4,5-b]pyridin-2-yl}ethyl)[(3,5-dichlorophenyl)methyl]amine], inhibition in assay [1] was half-maximal at 60 nM (IC50). The values for the EC50 in assay [2] (setting [5]) and in assay [3] were 598 nM and 5420 nM, respectively.
For `Clc1ccc2[nH]c(N3CCC[C@H](NCc4cc(Br)cc(Br)c4)C3)nc2n1` [Compound 1908, (S)-1-(5-chloro-1H-imidazo[4,5-b]pyridin-2-yl)-N-(3,5-dibromobenzyl) piperidin-3-amine], the concentration for half-maximal inhibition (IC50) in assay [1] stood at 15 nM; in assay [4] it was 155 nM. Moreover, the EC50 in assay [2] (setting [5]) came to 85.2 nM.
As to `CN(CCN(Cc1cc(Cl)cc(Cl)c1)C(=O)CN)c1nc2nc(Cl)ccc2[nH]1` [Compound 1957, 2-amino-N-[2-({5-chloro-1H-imidazo[4,5-b]pyridin-2-yl}(methyl)amino)ethyl]-N-[(3,5-dichlorophenyl)methyl]acetamide], the IC50 is 11 nM in assay [1] and 424 nM in assay [4].
As for `O=c1[nH]c(Cc2ccc(Cl)cc2Cl)cn1Cc1nc2ccc(F)nc2[nH]1` [Compound 1962, 5-(2,4-dichlorobenzyl)-3-((5-fluoro-3H-imidazo[4,5-b]pyridin-2-yl)methyl)-1H-imidazol-2(3H)-one], the 50% inhibitory concentration (IC50) in assay [1] amounted to 19 nM; in assay [4], 17 nM. Also, in assay [2] (setting [5]), the EC50 was 12.9 nM.
As to `O=C(NCc1nc2cccnc2[nH]1)OCCc1ccc(Cl)cc1Cl` [Compound 1706, 2-(2,4-dichlorophenyl)ethyl N-{3H-imidazo[4,5-b]pyridin-2-ylmethyl}carbamate], the IC50 was 38 nM in assay [1] and 83 nM in assay [4]. Also, the 50% effective concentration (EC50) in assay [2] (setting [5]) stood at 2760 nM.
The corresponding values for `Clc1cc(Cl)cc(NCCCNc2nc3ccc(Cl)nc3[nH]2)c1` [Compound 1967] are 88 nM, more than 1000 nM and 2300 nM.
The corresponding values for `COC(=O)N(CCN(C)c1nc2nc(Cl)ccc2[nH]1)Cc1cc(Cl)cc(Cl)c1` [Compound 1963, methyl 3,5-dichlorobenzyl2-(5-chloro-N-methyl-1H-imidazo[4,5-b]pyridin-2-ylamino)ethylcarbamate] are 21 nM, 348 nM and 97.4 nM.
As to `CC(=O)N(Cc1cc(Cl)cc(Cl)c1)C1CCCC(c2nc3nc(F)ccc3[nH]2)C1` (stereo not shown) [Compound 1801, N-(3,5-dichlorobenzyl)-N-(3-(5-fluoro-1H-imidazo[4,5-b]pyridin-2-yl)cyclohexyl)acetamide], the half-maximal inhibitory concentration (IC50) in assay [1] was 533 nM and 569 nM. In addition, the 50% effective concentration (EC50) in assay [3] came out at 252 nM.
Consider `CC(=O)N(CCCc1nc2ccc(Cl)nc2[nH]1)Cc1cc(Cl)cc(Cl)c1` [Compound 1895, N-(3-(5-chloro-1H-imidazo[4,5-b]pyridin-2-yl)propyl)-N-(3,5-dichlorobenzyl)acetamide], for which the IC50 is 17 nM in assay [1] and 445 nM in assay [4]. Also, the half-maximal effective concentration (EC50) in assay [2] (setting [5]) stood at 569 nM.
As for `Clc1cc(Cl)cc(NC[C@@H]2CCCN(c3nc4nc(Cl)ccc4[nH]3)C2)c1` [Compound 1923, (S)-3,5-dichloro-N-((1-(5-chloro-1H-imidazo[4,5-b]pyridin-2-yl)piperidin-3-yl)methyl)aniline], the half-inhibitory concentration (IC50) was found to be 32 nM in assay [1] and 504 nM in assay [4]. In addition, the EC50 in assay [2] (setting [5]) was 566 nM.
As for `CCC(=O)N(CCN(C)c1nc2nc(Cl)ccc2[nH]1)Cc1cc(Cl)cc(Cl)c1` [Compound 1942, N-(3,5-dichlorobenzyl)-N-(2-(5-chloro-N-methyl-1H-imidazo[4,5-b]pyridin-2-ylamino)ethyl)propionamide], the IC50 in assay [1] worked out at 20 nM; in assay [4], 104 nM. Besides, the half-maximal effective concentration (EC50) in assay [2] (setting [5]) turned out to be 145 nM.
For `CC(=O)N(CCCNc1nc2ccc(F)nc2[nH]1)Cc1cc(Cl)cc(Cl)c1` [Compound 1959, N-(3,5-dichlorobenzyl)-N-(3-(5-fluoro-3H-imidazo[4,5-b]pyridin-2-ylamino)propyl)acetamide], the IC50 stood at 16 nM in assay [1] and 12 nM in assay [4]. In addition, the EC50 is 39.3 nM in assay [2] (setting [5]) and 51.1 nM in assay [2] (read-out: B) T. brucei EC50).
Consider `CC(=O)N(CCN(C)c1nc2nc(F)ccc2[nH]1)Cc1cc(Cl)cc(Cl)c1` [Compound 1914, N-[(3,5-dichlorophenyl)methyl]-N-[2-({5-fluoro-1H-imidazo[4,5-b]pyridin-2-yl}(methyl)amino)ethyl]acetamide], for which the IC50 in assay [1] amounted to 18 nM; in assay [4] it was 303 nM. In assay [2] (setting [5]), the EC50 was determined as 252 nM.
Turning to `Fc1ccc2nc(NCCCNc3cc(Cl)cc(Cl)c3)[nH]c2n1` [Compound 1954, 3,5-dichloro-N-[3-({5-fluoro-3H-imidazo[4,5-b]pyridin-2-yl}amino)propyl]aniline], the half-maximal inhibitory concentration (IC50) in assay [1] came out at 61 nM; in assay [4], 928 nM. The results for the EC50 in assay [2] (setting [5]) and in assay [2] (read-out: B) T. brucei EC50) were 369 nM and 565 nM, respectively.
The matching figures for `CN(CCN(Cc1cc(Cl)cc(Cl)c1)C(=O)CCN)c1nc2nc(Cl)ccc2[nH]1` [Compound 1958, 3-amino-N-[2-({5-chloro-1H-imidazo[4,5-b]pyridin-2-yl}(methyl)amino)ethyl]-N-[(3,5-dichlorophenyl)methyl]propanamide]: 13 nM, 381 nM, 62.4 nM and 33.1 nM.
For the molecule `CC(=O)N(CCNc1nc2nc(F)ccc2[nH]1)Cc1cc(Cl)cc(Cl)c1` [Compound 1897, N-(3,5-dichlorobenzyl)-N-(2-((5-fluoro-1H-imidazo[4,5-b]pyridin-2-yl)amino)ethyl) acetamide], the IC50 in assay [1] was 16 nM; in assay [4] it was 606 nM. Further, the concentration for a half-maximal effect (EC50) in assay [2] (setting [5]) was 653 nM.
As for `COc1ccc(Oc2ccnc(NCc3nc4ccc(F)nc4[nH]3)c2)c(Cl)c1` [Compound 1960, 4-(2-chloro-4-methoxyphenoxy)-N-({5-fluoro-3H-imidazo[4,5-b]pyridin-2-yl}methyl)pyridin-2-amine], the results for the IC50 in assay [1] and in assay [4] were 21 nM and 12 nM, respectively.
As to `O=C(CCOc1ccc(Cl)cc1Cl)NCc1nc2ccc(F)nc2[nH]1` [Compound 1705, 3-(2,4-dichlorophenoxy)-N-({5-fluoro-3H-imidazo[4,5-b]pyridin-2-yl}methyl)propanamide], the half-maximal inhibitory concentration (IC50) was determined as 100 nM in assay [1] and 1690 nM in assay [4]. The concentration giving a half-maximal response (EC50) in assay [2] (setting [5]) was 8840 nM.
On to `COc1ccc(Oc2cc(NCc3nc4ccccc4[nH]3)ccn2)c(Cl)c1` [Compound 1950, N-(1H-1,3-benzodiazol-2-ylmethyl)-2-(2-chloro-4-methoxyphenoxy)pyridin-4-amine], for which the values for the half-inhibitory concentration (IC50) in assay [1] and in assay [4] were 50 nM and 797 nM, respectively.
For `Oc1c(Cl)cc(Cl)cc1CN[C@H]1CCCN(c2nc3nc(Cl)ccc3[nH]2)C1` [Compound 1921], the figures for the IC50 in assay [1] and in assay [4] were 25 nM and 1570 nM, respectively. Also, in assay [2] (setting [5]), the concentration for a half-maximal effect (EC50) came to 241 nM.
In turn, `N[C@@H](CC(=O)NCc1nc2ccccc2[nH]1)Cc1ccc(F)cc1` [Compound 1703, (3R)-3-amino-N-(1H-1,3-benzodiazol-2-ylmethyl)-4-(4-fluorophenyl)butanamide] registered an IC50 in assay [1] of 12100 nM. In assay [2] (setting [5]), the concentration giving a half-maximal response (EC50) is more than 10000 nM.
